The record followed here is patent publication US8247569B2, “Cyclohexane derivative and pharmaceutical use thereof” (Toray Industries, Inc., priority 2008, dated 2012).

In the first data set the test system is mouse sciatic nerve-ligation model (Seltzer model). The experiment in a line: mouse partial sciatic nerve ligation model (Seltzer model), von Frey test. The following applies: 1 hour after oral administration; doses as in Table 11.
With `COc1ccc(-c2cc(C3(O)CCC(O)CC3)nn2-c2ccc(OC)cc2)cc1` (single isomer, unassigned) [Example 4-B, 1-(1,5-Bis(4-methoxyphenyl)-1H-pyrazol-3-yl)cyclohexan-cis-1,4-diol], the “von Frey total score compared to the vehicle group” value is reported as “significantly improved”.

Staying with this data set, now noted: dose 3 mg/kg oral; vehicle B (27% HP-β-CD); n = 5 to 6.
As to `COc1ccc(-n2nc(C3(O)CCC(O)CC3)cc2-c2ccc(C)c(F)c2)cc1` (centres unmarked) [Compound 31], the “von Frey Total Score Observed 1 Hour after Oral Administration (mean ± standard error), Compound-administered group” value worked out at 0.7 ± 0.5.

The same data set, now with this note: dose 10 mg/kg oral; […]; n = 5 to 6.
Turning to `COc1ccc(-c2cc(C3(O)CCC(O)CC3)nn2-c2ccc(OC)cc2)cc1` (single isomer, unassigned) [Example 4-B, 1-(1,5-Bis(4-methoxyphenyl)-1H-pyrazol-3-yl)cyclohexan-cis-1,4-diol], the “von Frey Total Score Observed 1 Hour after Oral Administration (mean ± standard error), Compound-administered group” value was 2.2 ± 0.5.
On the same count and under the same terms, the result for `COc1ccc(-n2nc(C3(O)CCC(O)CC3)cc2-c2ccc(C)cc2)cc1F` (centres unmarked) [Compound 30] reads 1.2 ± 0.6.

The data set is the same for the next values; noted with them: positive controls; gabapentin 30 mg/kg oral; dose of Comparative Example 29 not given.
`NCC1(CC(=O)O)CCCCC1` [gabapentin, reference compound]: the “analgesic effect 3 hours after the oral administration (von Frey test)” value was “drastically decreased”.

Staying with this data set, now noted: positive controls; gabapentin 30 mg/kg oral; dose of Comparative Example 29 not given; FIGS. 1 to 4.
`NCC1(CC(=O)O)CCCCC1` [gabapentin, reference compound]: the “time of strongest analgesic effect after oral administration (von Frey test)” value stood at 1 h.

System in a further data set: not listed separately
The experiment in a line: human liver microsomal stability assay. It counts as in vitro ADME. The following applies: liver microsomes, pH 7.4, human liver microsomes 0.5 mg/mL, test compound 2 μmol/L, 37° C., 0-30 min, read-out: Human hepatic intrinsic clearance. On the procedure:
A liver microsomal stability assay, which is known to be an in vitro assay for evaluation of the stability of a compound against hepatic metabolism, was carried out to evaluate the stability of Compound (I) against human and mouse hepatic metabolism.
A total of 4 times of experiments were carried out for the combinations of the compound of Example 2-B or the compound of Comparative Example 29 as the test compound and human liver microsomes (Xenotech) or mouse liver microsomes (Xenotech) as the liver microsomes.
The respective reagents to be used for the liver microsomal stability assay were prepared as follows. That is, an appropriate amount of D-glucose 6-phosphate disodium salt (hereinafter referred to as G6P) was dissolved in distilled water at 100 mmol/L, to prepare 100 mmol/L aqueous G6P solution. In 5 mL of distilled water, 1000 units of Glucose 6-phosphate dehydrogenase from Yeast (hereinafter referred to as G6PDH) was dissolved, to prepare 200 units/mL aqueous G6PDH solution. An appropriate amount of MgCl2 was dissolved in distilled water at 100 mmol/L, to prepare 100 mmol/L aqueous MgCl2 solution. To 500 mL of 200 mmol/L aqueous K2HPO4 solution, 200 mmol/L aqueous KH2PO4 solution (about 130 mL) was added, and pH was adjusted to 7.4, to prepare 200 mmol/L KH2PO4/K2HPO4 buffer pH7.4 (hereinafter referred to as 200 mmol/L PB). β-nicotinamide-adenine dinucleotide phosphate, reduced form, tetrasodium salt (hereinafter referred to as (NADPH) was dissolved in distilled water such that the NADPH content becomes 10 mmol/L based on the purity (Purity NADPH) in the assay data described in the attached document, to prepare 10 mmol/L aqueous NADPH solution.
The liver microsomal stability assay was carried out according to the following procedure. First, the reagents listed in Table 12 (excluding microsomes) were mixed together to prepare a reaction mixture, and the reaction mixture was aliquoted in 130 μL volumes to 4 wells (which play roles as the wells for the 0-minute reaction, well for the 30-minute reaction, well for the 20-minute reaction and well for the 10-minute reaction, respectively) in a 96-well tube plate (BM Equipment Co., Ltd; hereinafter referred to as plate). The entire plate was covered with a silicone cap, and the plate was subjected to preincubation by being soaked in a water bath at 37° C. for 10 minutes.
After the preincubation, 3.75 μL of 20 mg/mL microsome suspension+16.25 μL of distilled water (20 μL in total) were added to the well for the 30-minute reaction, and the plate was covered with the cap, followed by soaking the plate in a water bath at 37° C. to initiate the reaction.
Ten minutes after the beginning of the reaction, 3.75 μL of 20 mg/mL microsome suspension+16.25 μL of distilled water (20 μL in total) were added to the well for the 20-minute reaction, and 20 minutes after the beginning of the reaction, 3.75 μL of 20 mg/mL microsome suspension+16.25 μL of distilled water (20 μL in total) were added to the well for the 10-minute reaction. The reaction was further continued by keeping the plate soaked in the water bath at 37° C.
Thirty minutes after the beginning of the reaction, the plate was removed from the water bath, and 120 μL of acetonitrile was added to each well, followed by covering the plate with the cap, stirring the plate for 10 seconds with Direct Mixer, and stopping the reaction by 10 minutes of ice cooling. After the reaction was stopped, 3.75 μL of 20 mg/mL microsome suspension+16.25 μL of distilled water (20 μL in total) were added to the well for the 0-minute reaction.
The reaction liquid in each well was centrifuged at 4° C. at 2500 rpm for 10 minutes, and the supernatant was transferred to a glass-coated microplate (TOMSIC Plate+) to begin LC/MS/MS analysis. The conditions for the LC/MS/MS analysis were as follows: […]
As to `COc1ccc(-c2cc(C3(O)CCC(O)CC3)nn2-c2ccc(OC)cc2)cc1` (single isomer, unassigned) [Example 4-B, 1-(1,5-Bis(4-methoxyphenyl)-1H-pyrazol-3-yl)cyclohexan-cis-1,4-diol], the microsomal CLint at 2 μmol/L was determined as 8.69 µL/min/mg.
Same read-out and setting: the result for `CCc1ccc(-c2cc(C3(O)CCC(O)CC3)nn2-c2ccc(OC)cc2)cc1` (centres unmarked) [Example 28] reads 3.19 µL/min/mg; that for `COc1ccc(-n2nc(C3(O)CCC(O)CC3)cc2-c2ccc(C)cc2)cc1F` (centres unmarked) [Example 30], 3.92 µL/min/mg.

A further data set concerns mouse acetic acid writhing model. The experiment in a line: mouse acetic acid writhing model (nociceptive pain). It counts as in vivo. The following applies: Mus musculus; male ddY mice; oral administration 45 min before 0.6% acetic acid i.p.; dose suppressing 50% of writhing responses vs vehicle group; vehicle A or B; read-out: ED50.
On to `COc1ccc(-n2nc(C3(CO)CCC(O)CC3)cc2-c2ccc(C)cc2)cc1` (stereo not drawn) [Example 65-A, 4-(Hydroxymethyl)-4-(1-(4-methoxyphenyl)-5-p-tolyl-1H-pyrazol-3-yl)-trans-1,4-cyclohexanol], for which the ED50 stood at 1.44 mg/kg.
Same read-out and setting: the result for `COc1ccc(-n2nc(C3(F)CCC(O)CC3)cc2-c2ccc(C)cc2)cc1` (centres unmarked) [Example 60, t-4-Fluoro-4-(1-(4-methoxyphenyl)-5-(p-tolyl)-1H-pyrazol-3-yl)-cyclohexan-r-1-ol] reads 1.37 mg/kg; that for `Cc1ccc(-c2cc(C3(O)CCC(O)CC3)nn2-c2ccc(Cl)cc2)cc1` (stereo not drawn) [Example 6-A, 1-(1-(4-Chlorophenyl)-5-p-tolyl-1H-pyrazol-3-yl)cyclohexan-trans-1,4-diol], 7.97 mg/kg.
Still for that read-out and setting: to `OC1CCC(O)(c2cc(-c3ccc(F)cc3)n(-c3ccc(Cl)cc3)n2)CC1` (centres unmarked) [compound 15] belongs over 10 mg/kg; to `COc1ccc(-n2nc(C3(O)CCC(O)CC3)cc2-c2ccc(S(C)(=O)=O)cc2)cc1` (centres unmarked) [Comparative Example 3], over 10 mg/kg.
Still for that read-out and setting: to `COc1ccc(-n2nc(C3(O)CCC(O)CC3)cc2-c2ccc(F)cc2)cc1` (centres unmarked) [compound 13] belongs over 10 mg/kg; to `COc1ccc(-n2nc(C3(OC)CCC(O)CC3)cc2-c2ccc(C)cc2)cc1` (centres unmarked) [Comparative Example 27, 4-Methoxy-4-(1-(4-methoxyphenyl)-5-p-tolyl-1H-pyrazol-3-yl)cyclohexanol], over 10 mg/kg; to `CCc1ccc(-c2cc(C3(O)CCC(O)CC3)nn2-c2ccc(OC)cc2)cc1` (centres unmarked) [Compound 28], 5.27 mg/kg.
On to `Cc1ccc(-c2cc(C3(O)CCC(O)CC3)nn2-c2ccc(S(C)(=O)=O)cc2)cc1` (centres unmarked) [compound 23], for which the ED50 was over 10 mg/kg.
Regarding `COc1ccc(-n2nc(C3(O)CCC(O)CC3)c(F)c2-c2ccc(C)cc2)cc1` (stereo not drawn) [Comparative Example 28, 1-(4-Fluoro-1-(4-methoxyphenyl)-5-(p-tolyl)-1H-pyrazol-3-yl)cyclohexan-cis-1,4-diol], the ED50 is over 10 mg/kg.
On to `COc1ccc(-n2nc(C3(O)CCC(O)CC3)cc2-c2ccccc2C)cc1` (centres unmarked) [compound 1], for which the ED50 is over 10 mg/kg.
Same read-out and setting: the result for `COc1ccc(-n2nc(C3(O)CCC(O)CC3)cc2-c2cccc(C)c2)cc1` (centres unmarked) [compound 10] reads over 10 mg/kg; that for `OC1CCC(O)(c2cc(-c3ccc(F)cc3)n(-c3ccccc3)n2)CC1` (centres unmarked) [compound 19], over 10 mg/kg; that for `OC1CCC(O)(c2cc(-c3ccc(Cl)cc3)n(-c3ccc(Cl)cc3Cl)n2)CC1` (centres unmarked) [compound 7], over 10 mg/kg.
The same measure, in the same setting: the result for `NS(=O)(=O)c1ccc(-n2nc(C3CCCCC3)cc2-c2ccccc2)cc1CO` [Comparative Example 30, 4-(3-Cyclohexyl-5-phenyl-1H-pyrazol-1-yl)-2-(hydroxymethyl)benzenesulfonamide] reads over 10 mg/kg; that for `COc1ccc(-c2nc(C3(O)CCC(O)CC3)sc2-c2ccc(C)cc2)cc1` (stereo not drawn) [Example 69-A, 1-(4-(4-Methoxyphenyl)-5-(p-tolyl)thiazol-2-yl)cyclohexan-trans-1,4-diol], 3.02 mg/kg.
On to `COc1ccc(-n2nc(C3(O)CCC(O)CC3)cc2-c2ccc(C)cc2)cc1F` (centres unmarked) [Compound 29], for which the ED50 amounted to 3.77 mg/kg.
Still for that read-out and setting: to `Cc1ccc(-c2cc(C3(O)CCC(O)CC3)nn2-c2ccc(F)cc2)cc1` (centres unmarked) [compound 11] belongs over 10 mg/kg; to `Cc1ccc(-n2nc(C3(O)CCC(O)CC3)cc2-c2ccc(F)cc2)cc1` (centres unmarked) [compound 21], over 10 mg/kg; to `COc1ccc(-n2nc(C3(O)CCCCC3)cc2-c2ccc(C)cc2)cc1` [Compound 1], 3.78 mg/kg.
Still for that read-out and setting: the result for `OC1CCC(O)(c2cc(-c3ccc(F)cc3)n(-c3ccc(F)cc3)n2)CC1` (centres unmarked) [compound 17] reads over 10 mg/kg.
On the same count and under the same terms, to `COc1ccc(-n2nc(C3(OC(C)=O)CCC(O)CC3)cc2-c2ccc(C)cc2)cc1` (centres unmarked) [Comparative Example 26, c-4-Hydroxy-1-(1-(4-methoxyphenyl)-5-(p-tolyl)-1H-pyrazol-3-yl)-cyclohexan-r-1-yl acetate] belongs over 10 mg/kg; to `CCOC(=O)C1CCC(O)(c2cc(-c3ccc(C)cc3)n(-c3ccc(OC)cc3)n2)CC1` (stereo not drawn) [Example 71, Ethyl 4-hydroxy-4-(1-(4-methoxyphenyl)-5-p-tolyl-1H-pyrazol-3-yl)-cis-cyclohexanecarboxylate], 1.58 mg/kg.
On to `COc1ccc(-n2nc(C3(O)CCC(O)CC3)cc2-c2ccc(C)c(F)c2)cc1` (centres unmarked) [Compound 31], for which the median effective dose (ED50) is 0.41 mg/kg.
For the compound `OC1CCC(O)(c2cc(-c3ccc(Cl)cc3)n(-c3ccc(F)cc3)n2)CC1` (centres unmarked) [compound 5], the ED50 is over 10 mg/kg.
Same read-out and setting: the result for `COc1ccc(-n2nc(C3(O)CCC(O)CC3)cc2-c2cccnc2OC)cc1` (centres unmarked) [compound 24] reads over 10 mg/kg; that for `COc1ccc(-n2nc(C3(O)CCC(OC)CC3)cc2-c2ccc(C)cc2)cc1` (centres unmarked) [Example 63, 4-Methoxy-1-(1-(4-methoxyphenyl)-5-(p-tolyl)-1H-pyrazol-3-yl)cyclohexanol], 5.36 mg/kg.

Staying with this data set, now noted: administration of 10 mg/kg; t-test.
As to `NS(=O)(=O)c1ccc(-n2nc(C3CCCCC3)cc2-c2ccccc2)cc1CO` [Comparative Example 30, 4-(3-Cyclohexyl-5-phenyl-1H-pyrazol-1-yl)-2-(hydroxymethyl)benzenesulfonamide], the “reduction in the number of writhing responses” value is given as “did not cause significant reduction”.

Staying with this data set, now noted: male ddY mice; oral administration 45 min before 0.6% acetic acid i.p.; dose suppressing 50% of writhing responses vs vehicle group; vehicle A or B.
For the compound `COc1ccc(-c2nc(C3(O)CCC(O)(C(F)(F)F)CC3)sc2-c2ccc(C)cc2)cc1` (stereo not drawn) [Example 70-B, 1-(4-(4-Methoxyphenyl)-5-(p-tolyl)thiazol-2-yl)-4-(trifluoromethyl)cyclohexan-cis-1,4-diol], the ED50 is 9.65 mg/kg.

What is called ED50 is the midpoint of the dose-response relation.
